# ChEMBL document CHEMBL1143037, “Discovery of +(2-{4-[2-(5,6,7,8-tetrahydro-1,8-naphthyridin-2-yl)ethoxy]phenyl}-cyclopropyl)acetic acid as potent and selective alphavbeta3 inhibitor: design, synthesis, and optimization” (Bioorg Med Chem, 2007)
# What was measured:
# Integrin alpha-V/beta-3 [1] = biological target: T1, Integrin alpha-V/beta-3 (Homo sapiens, UniProt P05106+P06756); assay: Inhibition of human integrin alpha-v-beta-3 receptor expressed in HEK293 cells; type: cell-based
# Integrin alpha-V/beta-1 = Integrin alpha-V/beta-1 (Homo sapiens, UniProt P05556+P06756); assay: Inhibition of integrin alphavbeta1 receptor expressed in HEK293 cells; type: cell-based
# Integrin alpha-V/beta-1, sequence (P05556 21-798 limits assumed): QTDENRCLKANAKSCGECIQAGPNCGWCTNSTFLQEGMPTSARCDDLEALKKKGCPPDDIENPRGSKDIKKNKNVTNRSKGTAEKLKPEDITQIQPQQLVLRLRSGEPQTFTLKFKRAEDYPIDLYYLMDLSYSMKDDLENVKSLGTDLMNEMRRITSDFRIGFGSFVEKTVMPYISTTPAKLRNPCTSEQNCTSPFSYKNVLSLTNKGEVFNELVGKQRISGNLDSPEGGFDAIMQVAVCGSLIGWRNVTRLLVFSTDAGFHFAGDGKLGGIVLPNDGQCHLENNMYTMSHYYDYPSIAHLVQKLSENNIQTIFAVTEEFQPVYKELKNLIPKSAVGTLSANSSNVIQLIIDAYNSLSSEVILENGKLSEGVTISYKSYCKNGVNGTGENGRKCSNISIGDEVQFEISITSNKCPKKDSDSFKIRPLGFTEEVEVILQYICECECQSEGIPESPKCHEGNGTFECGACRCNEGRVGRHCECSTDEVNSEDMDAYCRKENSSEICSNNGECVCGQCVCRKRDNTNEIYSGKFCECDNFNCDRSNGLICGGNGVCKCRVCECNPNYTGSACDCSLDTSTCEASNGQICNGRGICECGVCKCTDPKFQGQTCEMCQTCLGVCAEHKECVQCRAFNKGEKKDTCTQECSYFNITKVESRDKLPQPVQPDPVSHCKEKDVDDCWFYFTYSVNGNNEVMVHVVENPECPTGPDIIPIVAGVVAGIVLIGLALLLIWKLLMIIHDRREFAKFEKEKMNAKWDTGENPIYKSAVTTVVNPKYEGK
# Integrin alpha-V/beta-1, sequence (P06756 31-889 limits assumed): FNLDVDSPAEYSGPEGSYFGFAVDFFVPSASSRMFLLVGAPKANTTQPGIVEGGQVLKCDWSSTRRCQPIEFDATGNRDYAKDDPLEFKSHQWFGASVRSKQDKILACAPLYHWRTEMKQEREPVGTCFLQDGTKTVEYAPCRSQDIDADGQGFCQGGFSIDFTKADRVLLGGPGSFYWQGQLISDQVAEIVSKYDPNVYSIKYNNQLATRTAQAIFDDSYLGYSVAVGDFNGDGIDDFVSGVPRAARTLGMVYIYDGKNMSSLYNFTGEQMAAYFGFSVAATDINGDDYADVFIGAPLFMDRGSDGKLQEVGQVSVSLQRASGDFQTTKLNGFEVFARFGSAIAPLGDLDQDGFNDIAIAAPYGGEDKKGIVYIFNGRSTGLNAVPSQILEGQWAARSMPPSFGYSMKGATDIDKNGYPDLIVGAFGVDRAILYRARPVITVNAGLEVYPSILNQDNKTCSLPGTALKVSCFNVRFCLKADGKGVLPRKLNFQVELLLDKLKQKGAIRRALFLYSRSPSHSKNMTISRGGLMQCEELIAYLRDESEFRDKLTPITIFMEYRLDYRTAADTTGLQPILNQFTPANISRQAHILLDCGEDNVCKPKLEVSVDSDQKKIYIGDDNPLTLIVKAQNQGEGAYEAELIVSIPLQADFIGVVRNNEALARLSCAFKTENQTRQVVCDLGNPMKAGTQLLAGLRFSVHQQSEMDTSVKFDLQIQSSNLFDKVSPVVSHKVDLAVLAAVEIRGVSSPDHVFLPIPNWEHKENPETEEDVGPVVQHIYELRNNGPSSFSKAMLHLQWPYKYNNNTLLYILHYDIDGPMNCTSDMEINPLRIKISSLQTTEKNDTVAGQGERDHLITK
# Integrin alpha-V/beta-1, sequence (P06756 891-1048 limits assumed): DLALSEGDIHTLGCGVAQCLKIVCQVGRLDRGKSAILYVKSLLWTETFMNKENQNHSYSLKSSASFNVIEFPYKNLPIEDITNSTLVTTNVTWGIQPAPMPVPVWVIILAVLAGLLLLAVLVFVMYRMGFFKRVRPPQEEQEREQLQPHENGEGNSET
# Integrin alpha-V/beta-5 = Integrin alpha-V/beta-5 (Homo sapiens, UniProt P06756+P18084); assay: Inhibition of integrin alpha-v-beta-5 receptor expressed in HEK293 cells; type: cell-based
# Integrin alpha-V/beta-5, sequence (P06756 31-889 limits assumed): as the sequence (P06756 31-889 limits assumed) above
# Integrin alpha-V/beta-5, sequence (P06756 891-1048 limits assumed): as the sequence (P06756 891-1048 limits assumed) above
# Integrin alpha-V/beta-5, sequence (P18084 24-799 limits assumed): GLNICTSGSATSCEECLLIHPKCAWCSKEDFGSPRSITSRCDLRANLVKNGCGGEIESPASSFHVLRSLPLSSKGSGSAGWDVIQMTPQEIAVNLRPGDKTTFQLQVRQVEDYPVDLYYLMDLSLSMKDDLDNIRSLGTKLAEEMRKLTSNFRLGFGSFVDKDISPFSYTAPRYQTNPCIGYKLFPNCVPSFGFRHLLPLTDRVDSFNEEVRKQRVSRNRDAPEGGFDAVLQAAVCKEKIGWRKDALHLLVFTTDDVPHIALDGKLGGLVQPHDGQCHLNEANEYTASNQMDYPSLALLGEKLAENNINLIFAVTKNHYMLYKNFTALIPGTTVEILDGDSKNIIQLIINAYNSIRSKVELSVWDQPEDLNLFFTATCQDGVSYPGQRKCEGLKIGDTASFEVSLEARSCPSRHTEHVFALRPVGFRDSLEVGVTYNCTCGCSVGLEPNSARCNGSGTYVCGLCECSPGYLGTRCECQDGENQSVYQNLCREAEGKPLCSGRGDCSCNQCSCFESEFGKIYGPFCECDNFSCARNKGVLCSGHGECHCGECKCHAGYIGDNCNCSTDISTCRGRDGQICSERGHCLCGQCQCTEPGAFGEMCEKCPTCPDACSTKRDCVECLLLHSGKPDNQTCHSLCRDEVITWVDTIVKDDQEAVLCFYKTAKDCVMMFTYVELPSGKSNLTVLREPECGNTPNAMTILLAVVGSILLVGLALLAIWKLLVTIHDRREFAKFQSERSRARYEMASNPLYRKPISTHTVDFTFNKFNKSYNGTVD
# Integrin alpha-V/beta-6 = Integrin alpha-V/beta-6 (Homo sapiens, UniProt P06756+P18564); assay: Inhibition of integrin alpha-beta-6 receptor expressed in HT29 cells; type: cell-based, HT-29
# Integrin alpha-V/beta-6, sequence (P06756 31-889 limits assumed): as the sequence (P06756 31-889 limits assumed) above
# Integrin alpha-V/beta-6, sequence (P06756 891-1048 limits assumed): as the sequence (P06756 891-1048 limits assumed) above
# Integrin alpha-V/beta-6, sequence (P18564 22-788 limits assumed): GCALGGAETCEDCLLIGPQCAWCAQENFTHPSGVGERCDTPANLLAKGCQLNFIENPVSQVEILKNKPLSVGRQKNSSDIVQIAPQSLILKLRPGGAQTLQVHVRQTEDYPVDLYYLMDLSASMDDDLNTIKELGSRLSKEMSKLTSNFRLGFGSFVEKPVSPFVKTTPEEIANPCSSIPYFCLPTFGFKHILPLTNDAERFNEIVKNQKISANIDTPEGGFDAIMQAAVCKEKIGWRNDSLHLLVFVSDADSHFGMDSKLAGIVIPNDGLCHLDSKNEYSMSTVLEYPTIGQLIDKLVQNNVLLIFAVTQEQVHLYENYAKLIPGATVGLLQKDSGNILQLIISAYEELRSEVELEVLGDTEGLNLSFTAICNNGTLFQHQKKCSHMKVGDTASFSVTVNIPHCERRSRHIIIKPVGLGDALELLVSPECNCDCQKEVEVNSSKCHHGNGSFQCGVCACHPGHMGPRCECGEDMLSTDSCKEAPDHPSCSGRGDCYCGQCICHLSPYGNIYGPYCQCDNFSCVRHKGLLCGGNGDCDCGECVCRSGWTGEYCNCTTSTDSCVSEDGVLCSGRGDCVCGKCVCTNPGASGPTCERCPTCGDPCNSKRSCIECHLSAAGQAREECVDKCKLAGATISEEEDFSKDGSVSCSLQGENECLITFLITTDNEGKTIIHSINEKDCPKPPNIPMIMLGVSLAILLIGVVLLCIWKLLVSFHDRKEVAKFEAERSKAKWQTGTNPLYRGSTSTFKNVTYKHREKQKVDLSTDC
# Integrin alpha-V/beta-3 [2] = biological target: T1, Integrin alpha-V/beta-3; assay: Inhibition of human integrin alpha-v-beta-3 receptor by solid phase receptor assay; type: protein-complex assay
# Rattus norvegicus [3] = species on record: Rattus norvegicus; assay: (§1) Volume of distribution in Sprague-Dawley rat; type: ADME, organism-based; conditions: in vivo
# Rattus norvegicus [4] = species on record: Rattus norvegicus; assay: (§2) Bioavailability in Sprague-Dawley rat; type: ADME, organism-based; conditions: in vivo
# Rattus norvegicus [5] = species on record: Rattus norvegicus; assay: (§3) Half life in Sprague-Dawley rat; type: ADME, organism-based; conditions: in vivo
# Rattus norvegicus [6] = species on record: Rattus norvegicus; assay: (§4) Cmax in Sprague-Dawley rat; type: ADME, organism-based; conditions: in vivo
# [7] = AUC in Swiss-Webster mouse at 20 mg/kg, iv; type: ADME, organism-based; parameters: dose 20 mg/kg, route intravenous; conditions: plasma
# [8] = AUC in Swiss-Webster mouse at 20 mg/kg, po; type: ADME, organism-based; parameters: dose 20 mg/kg, route oral; conditions: plasma
# [9] = Half life in Swiss-Webster mouse at 2 mg/kg; type: ADME, organism-based; parameters: dose 2 mg/kg; conditions: in vivo
# [10] = Bioavailability in Swiss-Webster mouse at 2 mg/kg; type: ADME, organism-based; conditions: in vivo
# [11] = as §1; type: ADME, organism-based; conditions: Sprague-Dawley, in vivo, read-out: Vdss
# [12] = as §2; type: ADME, organism-based; conditions: Sprague-Dawley, in vivo
# [13] = as §3; type: ADME, organism-based; conditions: Sprague-Dawley, in vivo
# [14] = Clearance in Sprague-Dawley rat; type: ADME, organism-based; conditions: in vivo
# [15] = as §4; type: ADME, organism-based; conditions: Sprague-Dawley, in vivo
# [16] = Bioavailability in Swiss-Webster mouse at 20 mg/kg; type: ADME, organism-based; conditions: in vivo
# [17] = Half life in Swiss-Webster mouse at 20 mg/kg; type: ADME, organism-based; parameters: dose 20 mg/kg; conditions: in vivo
# T1 sequence (P05106 27-788 limits assumed): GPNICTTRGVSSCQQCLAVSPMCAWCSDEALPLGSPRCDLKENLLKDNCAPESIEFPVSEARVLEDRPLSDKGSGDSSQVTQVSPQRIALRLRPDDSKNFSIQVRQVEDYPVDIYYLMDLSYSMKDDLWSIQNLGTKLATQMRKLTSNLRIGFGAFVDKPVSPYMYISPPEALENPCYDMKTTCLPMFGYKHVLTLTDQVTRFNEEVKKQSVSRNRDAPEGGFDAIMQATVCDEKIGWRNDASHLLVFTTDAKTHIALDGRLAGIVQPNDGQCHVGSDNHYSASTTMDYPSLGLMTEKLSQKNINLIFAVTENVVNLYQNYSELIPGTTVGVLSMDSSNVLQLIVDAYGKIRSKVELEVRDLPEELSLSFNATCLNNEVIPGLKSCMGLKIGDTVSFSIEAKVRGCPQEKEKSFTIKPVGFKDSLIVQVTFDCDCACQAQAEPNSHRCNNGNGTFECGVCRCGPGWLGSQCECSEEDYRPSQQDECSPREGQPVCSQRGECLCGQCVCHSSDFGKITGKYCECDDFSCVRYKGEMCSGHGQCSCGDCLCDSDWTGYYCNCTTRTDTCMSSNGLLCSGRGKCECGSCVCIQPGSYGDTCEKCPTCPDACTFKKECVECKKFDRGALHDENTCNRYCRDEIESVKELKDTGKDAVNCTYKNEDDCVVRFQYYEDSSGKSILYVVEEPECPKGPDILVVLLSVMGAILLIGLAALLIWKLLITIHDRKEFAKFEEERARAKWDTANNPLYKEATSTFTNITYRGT
# T1 sequence (P06756 31-889 limits assumed): as the sequence (P06756 31-889 limits assumed) above
# T1 sequence (P06756 891-1048 limits assumed): as the sequence (P06756 891-1048 limits assumed) above
SMILES,IC50 (Integrin alpha-V/beta-3 [1]),IC50 (Integrin alpha-V/beta-1),IC50 (Integrin alpha-V/beta-5),IC50 (Integrin alpha-V/beta-6),IC50 (Integrin alpha-V/beta-3 [2]),further results
O=C(O)CC1CC1c1ccc(OCCc2ccc3c(n2)NCCC3)cc1 (stereo in doubt; (+)7),0.6 nM,6 nM,1.4 nM,2570 nM,0.6 nM,Vdss (Rattus norvegicus [3]): 0.915 L/kg; F (Rattus norvegicus [4]): 100%; t1/2 (Rattus norvegicus [5]): 4 h; Cmax (Rattus norvegicus [6]): 14800 ng/mL
O=C(O)CC1CC1c1ccc(OCCCNc2ccccn2)cc1 (stereo unspecified),42 nM,234 nM,–,–,19 nM,AUC [7]: 14200 ng·h/mL; AUC [8]: 18300 ng·h/mL; half-life [9]: 2.3 h; bioavailability [10]: 79%
"CC1(C)C(CC(=O)O)C1c1ccc(OCCc2ccc3c(n2)NCCC3)cc1 (single isomer, unassigned; (-))",–,–,–,10000 nM,42 nM,–
CNc1cccc(CCOc2ccc(C3CC3CC(=O)O)cc2)n1 (stereo unspecified),7 nM,–,–,20000 nM,7.4 nM,–
O=C(O)CC1CC1c1ccc(OCCc2ccc3c(n2)NCCC3)c(F)c1 (stereo unspecified),11 nM,11 nM,3 nM,3530 nM,0.5 nM,Vd [11]: 0.864 L/kg; bioavailability [12]: 100%; half-life [13]: 3.7 h; clearance [14]: 5.8 mL/min/kg; Cmax [15]: 15000 ng/mL
CC1(c2ccc(OCCc3ccc4c(n3)NCCC4)cc2)CC1CC(=O)O (stereo unspecified),–,–,–,–,36 nM,–
CC(CC(=O)O)Cc1ccc(OCCCNc2ccccn2)cc1 (stereo unspecified),51 nM,102 nM,33 nM,4360 nM,21 nM,bioavailability [16]: 92%; AUC [7]: 106000 ng·h/mL; AUC [8]: 195000 ng·h/mL; half-life [17]: 4.1 h
O=C(O)CCC1CC1c1ccc(OCCc2ccc3c(n2)NCCC3)nc1 (stereo unspecified),156 nM,–,–,–,472 nM,–
O=C(O)CC1CC1c1cccc(OCCc2ccc3c(n2)NCCC3)c1 (stereo unspecified),205 nM,–,–,9600 nM,776 nM,–
"O=C(O)CC1CC1c1ccc(OCCc2ccc3c(n2)NCCC3)cc1 (single isomer, unassigned; (-))",16 nM,297 nM,33 nM,10000 nM,16 nM,–
CC1(C)C(CC(=O)O)C1c1ccc(OCCc2ccc3c(n2)NCCC3)cc1 (stereo in doubt; (+)83),0.4 nM,–,4 nM,1790 nM,0.4 nM,Vd [11]: 0.276 L/kg; bioavailability [12]: 100%; half-life [13]: 5.1 h; clearance [14]: 0.9 mL/min/kg; Cmax [15]: 33000 ng/mL
O=C(O)CC1C(c2ccc(OCCc3ccc4c(n3)NCCC4)cc2)C1(Cl)Cl (stereo unspecified),1.5 nM,–,–,4500 nM,1.6 nM,Vd [11]: 0.493 L/kg; bioavailability [12]: 100%; half-life [13]: 4 h; clearance [14]: 2.2 mL/min/kg; Cmax [15]: 17400 ng/mL
O=C(O)CC1(c2ccccc2)CC1c1ccc(OCCc2ccc3c(n2)NCCC3)cc1 (stereo unspecified),–,–,–,–,2700 nM,–
O=C(O)CC1CC1c1ccc(OCCc2ccc3c(n2)NCCC3)cc1 (stereo in doubt; 7),3 nM,64 nM,4.4 nM,–,5 nM,AUC [7]: 378000 ng·h/mL; AUC [8]: 398000 ng·h/mL; Vdss (Rattus norvegicus [3]): 0.221 L/kg; F (Rattus norvegicus [4]): 62%; t1/2 (Rattus norvegicus [5]): 1.6 h; half-life [9]: 1.6 h; bioavailability [10]: 62%; Cmax [15]: 24500 ng/mL
O=C(O)CC1CC1c1ccc(OCCc2ccc3c(n2)NCCC3)c(F)c1F (stereo unspecified),10 nM,–,–,10000 nM,2 nM,–
O=C(O)CC1C(c2ccc(OCCc3ccc4c(n3)NCCC4)cc2)C1(Br)Br (stereo unspecified),1.7 nM,–,20 nM,4330 nM,3.3 nM,–
CC1(C)C(CC(=O)O)C1c1ccc(OCCc2ccc3c(n2)NCCC3)cc1 (stereo in doubt; 83),1.5 nM,–,–,10000 nM,1.3 nM,Vdss (Rattus norvegicus [3]): 0.419 L/kg; t1/2 (Rattus norvegicus [5]): 3.5 h; Cmax (Rattus norvegicus [6]): 23500 ng/mL
O=C(O)CC(Cc1ccc(OCCCNc2ccccn2)cc1)c1cccnc1 (stereo unspecified),2 nM,28 nM,–,25000 nM,0.5 nM,AUC [7]: 200 ng·h/mL; AUC [8]: 300 ng·h/mL; half-life [9]: 1.7 h; bioavailability [10]: 100%
O=C(O)CC(Cc1ccc(OCCCNc2ccccn2)cc1)c1ccccc1 (stereo unspecified),29 nM,96 nM,20 nM,19800 nM,8 nM,AUC [7]: 2300 ng·h/mL; AUC [8]: 2800 ng·h/mL; half-life [9]: 4.4 h; bioavailability [10]: 100%
O=C(O)CCC1CC1c1ccc(OCc2ccc3c(n2)NCCC3)cc1 (stereo unspecified),–,–,–,–,1000 nM,–
CC1(C)[C@H](c2ccc(OCCc3ccc4c(n3)NCCC4)cc2)[C@@H]1CC(=O)O (relative stereo),–,–,–,–,12 nM,–
O=C(O)CC1CC1c1ccc(OCCc2ccc3c(n2)NCCC3)c(O)c1 (stereo unspecified),0.9 nM,–,3 nM,9800 nM,1 nM,–
O=C(O)CC1CC1c1ccc(OCCc2ccc3c(n2)NCCC3)nc1 (stereo unspecified),–,–,–,10000 nM,1900 nM,–
O=C(O)CCC1CC1c1cccc(OCCc2ccc3c(n2)NCCC3)c1 (stereo unspecified),525 nM,–,–,–,954 nM,–
